Source: patent US11873298B2, “Compounds and uses thereof” (JANSSEN PHARMACEUTICA NV, priority 2017, dated 2024)
Values joined by “and” are separate entries in the source; they are usually repeats but may differ in a detail not shown here. Equal entries are not always repeated.

Tests used:
Ole1 = target: T1, Ole1 (Saccharomyces cerevisiae, UniProt P21147); assay: Growth inhibition of yeast strain expressing Ole1 as sole desaturase; type: cell-based; details: yeast strain expressing Ole1 as sole desaturase
T1 construct: expressed in transfected cells; host or cells: S. cerevisiae ole1Δ strain (W303 pdr1Δ pdr3Δ background), plasmid pRS316 with TDH3 promoter and CYC1 terminator
T1 sequence (P21147 1-510): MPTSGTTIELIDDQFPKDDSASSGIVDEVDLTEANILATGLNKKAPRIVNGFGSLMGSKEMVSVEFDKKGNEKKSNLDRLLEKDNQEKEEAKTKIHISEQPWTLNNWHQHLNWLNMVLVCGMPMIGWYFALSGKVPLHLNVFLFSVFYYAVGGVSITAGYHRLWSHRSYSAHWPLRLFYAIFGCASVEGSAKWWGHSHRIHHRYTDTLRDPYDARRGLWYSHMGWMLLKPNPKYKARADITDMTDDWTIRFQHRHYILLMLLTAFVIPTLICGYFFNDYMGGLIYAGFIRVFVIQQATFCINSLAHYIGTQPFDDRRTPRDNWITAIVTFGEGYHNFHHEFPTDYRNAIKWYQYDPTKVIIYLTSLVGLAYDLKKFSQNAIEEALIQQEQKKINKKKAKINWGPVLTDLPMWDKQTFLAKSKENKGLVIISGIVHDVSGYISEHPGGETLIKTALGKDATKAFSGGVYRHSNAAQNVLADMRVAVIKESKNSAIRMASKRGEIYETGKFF
Outline: (§1)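 Yeast ole1Δ strain (W303 pdr1Δ pdr3Δ background) carrying plasmid-borne Ole1, SCD1 or SCD5 as sole desaturase was grown in uracil-lacking media, pre-cultured in raffinose for 6 h, then seeded in galactose medium with compound in DMSO. Growth was read as OD600 after 30° C. incubation: 24 h for Ole1, 40 h for SCD1/SCD5.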

SCD1 = target: T2, SCD1 (Homo sapiens, UniProt O00767); assay: Growth inhibition of humanized yeast strain expressing SCD1 as sole desaturase; type: cell-based; details: humanized yeast strain expressing SCD1
T2 construct: host or cells: S. cerevisiae ole1Δ strain (W303 pdr1Δ pdr3Δ background), plasmid pRS316 with TDH3 promoter and CYC1 terminator
T2 sequence (O00767 1-359): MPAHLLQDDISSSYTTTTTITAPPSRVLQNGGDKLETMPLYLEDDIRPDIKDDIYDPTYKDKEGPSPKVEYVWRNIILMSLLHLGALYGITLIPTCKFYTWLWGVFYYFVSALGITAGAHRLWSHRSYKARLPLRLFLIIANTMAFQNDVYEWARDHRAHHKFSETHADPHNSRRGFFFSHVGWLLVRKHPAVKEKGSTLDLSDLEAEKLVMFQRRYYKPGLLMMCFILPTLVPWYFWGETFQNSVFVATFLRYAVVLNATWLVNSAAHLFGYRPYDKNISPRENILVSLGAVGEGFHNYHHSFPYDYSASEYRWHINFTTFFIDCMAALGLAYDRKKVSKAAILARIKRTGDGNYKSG
Outline: as §1

SCD5 = target: T3, SCD5 (Homo sapiens, UniProt Q86SK9); assay: Growth inhibition of humanized yeast strain expressing SCD5 as sole desaturase; type: cell-based; details: humanized yeast strain expressing SCD5
T3 construct: host or cells: S. cerevisiae ole1Δ strain (W303 pdr1Δ pdr3Δ background), plasmid pRS316 with TDH3 promoter and CYC1 terminator
T3 sequence (Q86SK9 1-330): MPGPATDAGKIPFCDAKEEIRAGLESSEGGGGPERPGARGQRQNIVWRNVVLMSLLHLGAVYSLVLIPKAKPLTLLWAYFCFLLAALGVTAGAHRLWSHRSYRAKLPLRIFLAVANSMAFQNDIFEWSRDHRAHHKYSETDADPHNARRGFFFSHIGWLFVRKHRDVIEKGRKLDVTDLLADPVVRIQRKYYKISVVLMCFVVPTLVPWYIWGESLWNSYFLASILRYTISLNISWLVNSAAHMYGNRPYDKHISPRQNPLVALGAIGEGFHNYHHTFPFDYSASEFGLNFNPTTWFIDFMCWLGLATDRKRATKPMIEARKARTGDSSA
Outline: as §1

[1] = test system: yeast strains expressing the human α-synuclein; assay: Yeast α-synuclein toxicity rescue assay (OD600 growth); details: 40 h; for EC50: read-out: α-Syn EC50; for Emax: read-out: α-Syn Emax
Description: The induced expression of α-synuclein and ApoE4 confers cytotoxicity, thus enabling the identification of compounds that can restore cell viability. This instantaneous/synchronous induction of α-synuclein and ApoE4 can be achieved due to the following expression control. In glucose-containing media, gene expression from the GAL1 promoter is ‘off’ and actively repressed by additional epigenetic factors. In raffinose, expression is ‘off’, but the promoter not actively repressed. Upon transition to galactose-containing media, the promoter is instantaneously turned ‘on’ to achieve robust and synchronous induction of α-synuclein or ApoE4 expression. This highly regulated induction provides a robust window for the determination of both efficacy (amplitude of protective effect) and potency (concentration of protective effect) of cytoprotective compounds.
Re-suspended compound stocks were subsequently arrayed into 384 well compound plates using automated pipetting. All other wells not receiving stock compound were filled with 10 μL of 100% DMSO using an automated plate filler (Multidrop Combi). An 11 point, 2-fold serial dilution was then performed using the robotic platform. Compound assay plates were covered with foil and stored at −20° C. until use.
Each strain was handled according to standard protocols and cultured in media composed of CSM (complete synthetic media), YNB (yeast nitrogenous base), and a 2% (w/v) carbon source (either glucose, raffinose, or galactose).
In a standard yeast assay, a single-use aliquot of cells was thawed on ice and diluted into CSM/glucose (5 mL). Cultures were grown for 8 hours at 30° C. This pre-growth enables the yeast to exit the thaw and begin to grow without expressing aSyn or ApoE4. After 8 hours, cell density (OD600) was determined and cultures diluted to an OD600 of 0.01 in CSM/raffinose for an overnight culture phase at 30° C. During this period, the active glucose repression of the GAL1 promoter was relieved; however, expression of the α-Syn/ApoE4 genes were not yet induced. After ˜16 hours of growth, cultures attain an OD600 of 0.4-0.8 and were ready to apply to assay plates containing compound.
Compound profiling assays were executed in clear-bottom 384 well plates. First, compound plates were thawed at room temperature for 45′, centrifuged at 1,000×g for 1 minute, and the foil removed. Clear 384 well assay plates were then filled with 15 μL of CSM/galactose. […] The pin tool was washed iteratively with both 50% DMSO and 100% ethanol between each assay plate. After delivering compound to each assay plate, the overnight CSM/raffinose aSyn or ApoE4 cultures were added at a 2X cell density (0.04 for aSyn and 0.08 for ApoE4) in CSM/galactose to achieve a final assay OD600 of 0.02 and 0.04 for aSyn and ApoE, respectively. The cultures (15 μL per well) were then dispensed to the compound -containing 384 well assay plates using an automated plate filler. Plates were incubated in a humidified 30° C. incubator for 40 or 24 hours for aSyn and ApoE4, respectively. The ODsoo of each assay plate was then read with a microplate reader (e.g., Perkin Elmer Envision).
The efficacy and potency of compounds were calculated according to the following. Raw data (OD600 values) were first background corrected to account for OD600 contributed by the plate and media itself. The efficacy (percent above DMSO, herein referred to as “Emax”) was calculated according to the equation: (Experimental well−DMSO control well)/(DMSO control well)*100. […] Normalized dose-response data was fit with a logistic regression curve using Spotfire (TIBCO), or similar curve-fitting software package. EC50 values were then reported along with EMax to provide both efficacy and potency measures for each analog and enable further compound design.

Structure (SMILES)	IC50 (Ole1)	OLE1 % Max Inhibition (Ole1)	IC50 (SCD1)	IC50 (SCD5)	SCD5 % Max Inhibition (SCD5)	EC50 [1]	Emax [1]	SCD1 % Max Inhibition (SCD1)
CCOc1ccc(-c2noc(C3CCN(C(=O)C(CO)N4Cc5ccccc5C4=O)CC3)n2)cc1OC (stereo not drawn) [Compound 128]	> 45 µM	81.43% and 60.60%	> 45 µM	> 45 µM	1.89% and 3.32%	0.252 µM	306%	–
Cc1nn(C)c2cc(-c3noc(C4CCN(C(=O)C(CO)N5Cc6ccccc6C5=O)CC4)n3)ccc12 (stereo not drawn) [Compound 129]	> 45 µM	3.25%	> 45 µM	> 45 µM	93.05%	0.047 µM	360%	75.60%
CCOc1ncc(-c2noc(C3CCN(C(=O)C4CC(=O)N(c5ccccc5)C4)CC3)n2)cc1OC (stereo not drawn) [Compound 130]	> 45 µM	2.75%	> 45 µM	> 45 µM	99.82%	1.44 µM	328%	97.82%
CCOc1ncc(-c2noc(C3CCN(C(=O)CN4Cc5ccccc5C4=O)CC3)n2)cc1OC [Compound 131]	25.8 µM	39.81%	> 45 µM	> 45 µM	98.92%	0.167 µM	352%	96.48%
CCOc1ncc(-c2noc(C3CCN(C(=O)CNC(=O)c4ccccc4)CC3)n2)cc1OC [Compound 132]	> 45 µM	7.45%	> 45 µM	> 45 µM	94.34%	1.01 µM	253%	115.10%
Cn1c(=O)[nH]c2ccc(-c3noc(C4CCN(C(=O)CN5Cc6ccccc6C5=O)CC4)n3)cc21 [Compound 133]	> 45 µM	26.72%	37.3 µM	> 45 µM	74.75%	6.38 µM	281%	61.21%
Cn1c(=O)[nH]c2ccc(-c3noc(C4CCN(C(=O)C5CC(=O)N(c6ccccc6)C5)CC4)n3)cc21 (stereo not drawn) [Compound 134]	> 45 µM	93.94%	> 45 µM	> 45 µM	98.55%	14 µM	357%	107.77%
Cc1noc2cc(-c3noc(C4CCN(C(=O)CNC(=O)c5ccccc5)CC4)n3)ccc12 [Compound 135]	> 45 µM	99.53%	> 45 µM	> 45 µM	91.64%	0.593 µM	144%	92.42%
Cc1noc2cc(-c3noc(C4CCN(C(=O)C5CC(=O)N(c6ccccc6)C5)CC4)n3)ccc12 (stereo not drawn) [Compound 136]	> 45 µM	73.60%	> 45 µM	> 45 µM	17.07%	4.08 µM	67%	34.33%
Cc1nn(C)c2cc(-c3noc(C4CCN(C(=O)CNC(=O)c5ccccc5)CC4)n3)cnc12 [Compound 137]	> 45 µM	96.83%	> 45 µM	22.3 µM	50.61%	1.05 µM	376%	90.19%
Cc1nn(C)c2cc(-c3noc(C4CCN(C(=O)C5CC(=O)N(c6ccccc6)C5)CC4)n3)cnc12 (stereo not drawn) [Compound 138]	> 45 µM	3.94%	37.3 µM	> 45 µM	4.57%	1.28 µM	353%	54.49%
